{"source": "patent US7393864B2", "about": "“Use of ClC3 chloride channel blockers to modulate vascular tone” (University of Iowa Research Foundation, priority 1999, dated 2008)", "key": {"[1]": {"test_system": "isolated rings of rat aorta", "experiment": "Contractile response to ED80 norepinephrine or KCl in isolated rings of rat aorta (earlier studies, Lamb and Barna 1998)", "settings": "for Vasodilator effect in the presence of NE or KCl: denuded blood vessel segments; for Effect on contractile response to ED80 concentrations of NE or KCl: rings with intact endothelium", "source_text": "The above experiments were reported in Lamb and Barna, Am. J. Physiol., 275 H151 (1998) and Lamb and Barna, Am. J. Physiol., 275, 161 (1998), and are incorporated herein by reference."}, "[2]": {"test_system": "swelling-induced Cl ion current in cultured human aortic and coronary vascular smooth muscle cells", "experiment": "Whole-cell voltage-clamp of swelling-induced chloride current", "type": "cell-based", "settings": "for Effect on swelling-induced Cl current: hypotonic conditions, whole-cell patch clamp, β-estradiol 10^−7 M, H-7 10^−5 M", "procedure": "Electrophysiology. Chloride ion currents were measured from cultured human aortic and coronary vascular smooth muscle cells at room temperature (22-24° C. using standard whole-cell voltage-clamp techniques (Hamill et al., 1981; Lamb et al., 1994) and an Axopatch 200B patch-clamp amplifier driven by pClamp software (Axon Instruments). The hypotonic (250 mOsm/kg by freezing point depression) bath solution contained (mM): NaCl 125, MgCl2 2.5, CaCl2 2.5, HEPES 10, pH 7.2. Isotonic bath solution had the same ionic composition as the hypotonic solution except that the osmolality was adjusted to 300 mOsm/kg by adding mannitol. Pipette solution contained (mM): N′-methyl-D-glucamine chloride (NMDG—Cl) 135, EGTA 2, Mg-ATP 5, HEPES 10, pH 7.2 with osmolality adjusted to 300 mOsm/kg by adding mannitol. Thus, the chloride equilibrium potential remained 0 mV under both isotonic and hypotonic conditions. All components of the buffer solutions were obtained from Sigma. Pipette resistances were 3-5 MOhms."}, "[3]": {"test_system": "Clcn3 knockout, heterozygous and wild type mice", "experiment": "Pentylenetetrazole-induced seizure susceptibility", "type": "in vivo, mouse", "settings": "PTZ 70 mg/kg i.p.", "procedure": "The proconvulsant, pentylenetetrazole (PTZ), was dissolved at 7 mg/ml in sterile 0.9% NaCl and administered to drug-naive mice at 70 mg/kg i.p. in a quiet daytime laboratory setting. Parameters measured during the 15-minute observation period included time to onset of generalized tonic-clonic or tonic seizures, and duration of the first generalized seizure. Lethality was assessed 60 minutes post-injection (Loscher and Nolting, 1991)."}, "Clcn3^−/− mice": {"test_system": "Clcn3^−/− mice", "experiment": "Recovery from sedatives in adult Clcn3-/- mice"}, "[4]": {"test_system": "rat thoracic aorta rings (vascular smooth muscle), intact or denuded endothelium", "experiment": "Norepinephrine-induced contraction of isolated aortic rings, isometric tension", "settings": "10 μM tamoxifen, FIG. 2"}, "[5]": {"test_system": "rat thoracic aorta rings (vascular smooth muscle), intact or denuded endothelium", "experiment": "KCl-induced contraction of isolated aortic rings, isometric tension", "settings": "10 μM tamoxifen, FIG. 3", "procedure": "Adult male Sprague-Dawley rats (250-300 g) were obtained from Harlan Sprague Dawley. The animals were killed by exposure to 100% CO2 for 5 minutes, followed by cervical dislocation. Thoracic aortas were removed, cleaned of adherent connective tissue, and cut into 6 mm rings. The endothelium was left intact, and the rings were mounted in individual 10 ml isolated organ chambers using standard methods for recording of isometric tension. Contractile responses were recorded with an eight-channel MacLab8E and stored on a Power Macintosh 7200 computer. Passive stretch was set at 2.5 g, and the rings were allowed to equilibrate in physiological salt solution (PSS) at 37° C. for 120 minutes before the start of experimentation. PSS was aerated with a mixture of […]; the composition was as follows (in mM): 130 NaCl, 4.7 KCl, 1.18 KH2PO4, 1.17 MgSO47H2O, 14.9 NaHCO3, 1.6 CaCl2H2O, 5.5 dextrose, and 0.03 CaNa2-EDTA 0.03 (pH 7.30).\nData were expressed as a percentage of the maximal response of each ring to the agonist.\n• 1. Intact and denuded aortic blood vessel segments were prepared and mounted as described in Example 1. • 2. […] Cl (Sigma Chemical, St. Louis, Mo.), was applied to the vessels at 2, 4, 8, 12, 16, 20, 28, 40, 60, 80, and 100 mM concentrations, and the contractile response measured as described above."}, "[6]": {"test_system": "ion channel responsible for swelling-induced chloride conductance (CLC3)", "settings": "Duan et al. 1997; Nilius et al. 1994; cited from earlier work"}, "[7]": {"test_system": "isolated rings of rat aorta", "settings": "vasculature with intact endothelium; Lamb and Barna 1998; cited from earlier work"}, "[8]": {"test_system": "isolated aortic rings from male wild-type, heterozygote and Clcn3 knockout mice", "experiment": "Dose-response to norepinephrine in isolated mouse aortic rings", "settings": "L-NNA 10^−4 M, wild-type tissues, FIG. 17", "procedure": "Animals were sacrificed by exposure to 100% CO2 for five minutes followed by cervical dislocation. Thoracic aortae were removed, cleaned of adherent connective tissue and cut into 4 rings. […] Contractile responses were recorded using a MacLab 8E and stored on a Power MacIntosh 6400/200 computer. Passive stretch was set at 5.0 mN and the rings were allowed to equilibrate in Physiologic Salt Solution (PSS) at 37° C. for 60 minutes prior to the start of experimentation."}, "erectile function": {"test_system": "erectile function", "settings": "cited from earlier work"}}, "data": [{"compound": "O=S(=O)(O)c1cc(N=C=S)ccc1C=Cc1ccc(N=C=S)cc1S(=O)(=O)O", "note": "[DIDS, 4,4′-diisothiocyanato stilbene-2,2′disulphonic acid]", "values": [{"measurement": "Vasodilator effect in the presence of NE or KCl", "setting": "[1]", "value": "persisted"}, {"measurement": "Effect on contractile response to ED80 concentrations of NE or KCl", "setting": "[1]", "value": "significantly inhibited"}]}, {"compound": "CC1CNCCN1S(=O)(=O)c1cccc2cnccc12", "note": "(stereo not drawn) [H-7]", "values": [{"measurement": "Effect on swelling-induced Cl current", "setting": "[2]", "value": "increased"}]}, {"compound": "C1CCc2nnnn2CC1", "note": "[PTZ, pentylenetetrazole]", "values": [{"measurement": "Mice with generalized seizures", "setting": "[3]; Clcn3^+/+ mice (7/8)", "value": 87.5, "unit": "%"}, {"measurement": "Onset of generalized seizures", "setting": "[3]; Clcn3^+/+ mice", "value": "280 ± 112", "unit": "s"}, {"measurement": "Mice with generalized seizures", "setting": "[3]; Clcn3^+/− mice (13/15), 4-5 weeks old", "value": 86.7, "unit": "%"}, {"measurement": "Onset of generalized seizures", "setting": "[3]; Clcn3^+/− mice", "value": "215 ± 56", "unit": "s"}, {"measurement": "Mice with seizure activity", "setting": "[3]; Clcn3^−/− mice (1/8)", "value": 12.5, "unit": "%"}, {"measurement": "Onset of seizure activity", "setting": "[3]; Clcn3^−/− mice", "value": 58, "unit": "s"}]}, {"compound": "CCCC(C)C1(CC)C(=O)NC(=O)NC1=O", "note": "(stereo not drawn) [pentobarbital]", "values": [{"measurement": "Recovery time from sedation", "setting": "Clcn3^−/− mice", "value": "prolonged recovery time"}, {"measurement": "Incidence of death", "setting": "Clcn3^−/− mice; even at reduced doses", "value": "increased incidence of death"}]}, {"compound": "CC/C(=C(\\c1ccccc1)c1ccc(OCCN(C)C)cc1)c1ccccc1", "note": "[tamoxifen, 1-p-β-dimethylaminoethoxyphenyl-trans-1,2-diphenylbut-1-ene]", "values": [{"measurement": "Swelling-induced chloride current", "setting": "[2]; hypotonic + H7 (10^−5 M) + tamoxifen, n=3, hypotonic 1204±313 pA", "value": "878±493", "unit": "pA"}, {"measurement": "Effect on swelling-induced Cl current", "setting": "[2]", "value": "inhibited"}, {"measurement": "Effect on NE sensitivity/contractility of endothelially compromised (denuded) vessel segments", "setting": "[4]", "value": "shifts the dose-response curve of NE back to the right"}, {"measurement": "Effect on KCl sensitivity/contractility of denuded vessel segments", "setting": "[5]", "value": "corrects the increase in vascular smooth muscle sensitivity to KCl"}, {"measurement": "Block of ion channel responsible for swelling-induced chloride conductance", "setting": "[6]", "value": "block"}, {"measurement": "Effect on norepinephrine-induced contraction of normal vasculature", "setting": "[7]", "value": "no effect"}]}, {"compound": "Cc1ncc2n1-c1ccc(Cl)cc1C(c1ccccc1F)=NC2", "note": "[midazolam]", "values": [{"measurement": "Recovery time from sedation", "setting": "Clcn3^−/− mice", "value": "prolonged recovery time"}]}, {"compound": "NC(=NCCC[C@H](N)C(=O)O)N[N+](=O)[O-]", "note": "[L-NNA]", "values": [{"measurement": "Responsiveness to norepinephrine when endothelial nitric oxide synthase is inhibited", "setting": "[8]", "value": "increase in responsiveness"}]}, {"compound": "O=C(O)c1cccnc1Nc1cccc(C(F)(F)F)c1", "note": "[niflumic acid]", "values": [{"measurement": "Vasodilator effect in the presence of NE or KCl", "setting": "[1]", "value": "persisted"}, {"measurement": "Effect on contractile response to ED80 concentrations of NE or KCl", "setting": "[1]", "value": "significantly inhibited"}]}, {"compound": "CN1CCc2cccc3c2[C@H]1Cc1ccc(O)c(O)c1-3", "note": "[apomorphine]", "values": [{"measurement": "Men returned to sexual potency", "setting": "erectile function; men whose dysfunction had psychological origins", "value": "about 70%"}, {"measurement": "Time to response following administration", "setting": "erectile function; sublingual", "value": "20 to 40", "unit": "min"}]}, {"compound": "C[C@]12CC[C@@H]3c4ccc(O)cc4CC[C@H]3[C@@H]1CC[C@@H]2O", "note": "[β-estradiol]", "values": [{"measurement": "Swelling-induced Cl current (ICl)", "setting": "[2]; hypotonic plus estradiol 10^−7 M, +120 mV, n=5, hypotonic only 1451±495 pA", "value": "3513±856", "unit": "pA"}]}]}
